Two compounds from ChEMBL document CHEMBL6092122, “Nonenzymatic Sequestering of Formaldehyde into the Antibiotic Methylene-Bridged Dimer Phaeochromycin F by Streptomyces sp. OUCMDZ-4982 as a Possible Multipronged Chemical Defense Mechanism” (J Nat Prod, 2024) can be followed below.

Values after ≈ are worked out from the molar mass of the structure shown. Active and inactive are the calls of the source. The calls are words filed in the database; no cut-off is given here.

The subject of series [1] is Streptomyces sp. Kind of series: Protection against formaldehyde-induced toxicity in Streptomyces sp. OUCMDZ-4982 cultured in Gauze medium assessed as decrease in bacterial growth incubated for 1 hr. It counts as functional, organism-based.
Series [2] relates to Streptomyces sp. Kind of series: Protection against formaldehyde-induced toxicity in Streptomyces sp. OUCMDZ-4982 cultured in A1 medium assessed as decrease in bacterial growth incubated for 1 hr. It counts as functional, organism-based.
For series [3], the system named is Streptomyces sp. Briefly: Protection against formaldehyde-induced toxicity in Streptomyces sp. OUCMDZ-4982 cultured in Gauze medium assessed as inhibition of bacterial growth incubated for 1 hr. It counts as functional, organism-based.
Series [4] can be described thus: Drug metabolism in Staphylococcus aureus ATCC 6538 assessed as 3,3-methylenebis(4-hydroxy-6-methyl-2H-pyran-2-one) formation in presence of 2266E medium by HPLC analysis. It counts as ADME.
A short description of series [5]: Chemical reactivity of compound in formaldehyde assessed as (1S,2R,18R,19R,22S,25R,28R,40S)-48-[(2S,3R,4S,5S,6R)-3-[(2S,4S,5S,6S)-4-amino-5-hydroxy-4,6-dimethyl-tetrahydropyran-2-yl]oxy-4,5-dihydroxy-6-(hydroxymethyl)tetrahydropyran-2-yl]oxy-22-(2-amino-2-oxo-ethyl)-5,15-dichloro-2,18,32,35,37-pentahydroxy-19-[(4R)-4-isobutyl-3-methyl-5-oxo-imidazolidin-1-yl]-20,23,26,42,44-pentaoxo-7,13-dioxa-21, …. It counts as physicochemical.

For series [6], the system named is Bacillus subtilis. Kind of series: Bactericidal activity against Bacillus subtilis ATCC 6051 incubated for 24 hrs by microdilution method. It counts as functional.
Series [7] relates to Staphylococcus aureus. Briefly: microbe, parasite or virus in culture. The note with it: ATCC 43300.
Description: Antibacterial activity against methicillin-resistant Staphylococcus aureus ATCC 43300 in presence of 4 mg/L HCHO by microdilution method
Series [8] can be described thus: Chemical reactivity of compound in formaldehyde assessed as (4R,4aR,5aS,12aR)-9-(3-(tert-butyl)-5-oxoimidazolidin-1-yl)-4,7-bis(dimethylamino)-3,10,12,12a-tetrahydroxy-1,11-dioxo-1,4,4a,5,5a,6,11,12a-octahydrotetracene-2-carboxamide formation. It counts as physicochemical.
Series [9] deals with Staphylococcus aureus. Kind of series: microbe, parasite or virus in culture. The note with it: ATCC 6538.
Description: Antibacterial activity against Staphylococcus aureus ATCC 6538 in presence of 4 mg/L HCHO by microdilution method
Series [10] is described as follows: Drug metabolism in Staphylococcus aureus ATCC 6538 assessed as (1S,2R,18R,19R,22S,25R,28R,40S)-48-[(2S,3R,4S,5S,6R)-3-[(2S,4S,5S,6S)-4-amino-5-hydroxy-4,6-dimethyl-tetrahydropyran-2-yl]oxy-4,5-dihydroxy-6-(hydroxymethyl)tetrahydropyran-2-yl]oxy-22-(2-amino-2-oxo-ethyl)-5,15-dichloro-2,18,32,35,37-pentahydroxy-19-[(4R)-4-isobutyl-3-methyl-5-oxo-imidazolidin-1-yl]-20,23,26,42,44-pentaoxo-7,13-dioxa- …. It counts as ADME.

For series [11], the system named is Staphylococcus aureus. Briefly: microbe, parasite or virus in culture. The note with it: ATCC 43300. This is another data set of the same source.
Description: Antibacterial activity against methicillin-resistant Staphylococcus aureus ATCC 43300 in presence of 8 mg/L HCHO by microdilution method
Series [12] concerns Staphylococcus aureus. Briefly: Bactericidal activity against Staphylococcus aureus ATCC 6538 incubated for 24 hrs by microdilution method. It counts as functional.
Series [13] has as its system Bacillus subtilis. Briefly: Antibacterial activity against Bacillus subtilis ATCC 6051 incubated for 24 hrs by microdilution method. It counts as functional.
Series [14] concerns Staphylococcus aureus. Kind of series: Bactericidal activity against Staphylococcus aureus ATCC 43300 incubated for 24 hrs by microdilution method. It counts as functional.
Series [15] can be described thus: Chemical reactivity of compound in acetaldehyde assessed as (1S,2R,18R,19R,22S,25R,28R,40S)-48-[(2S,3R,4S,5S,6R)-3-[(2S,4S,5S,6S)-4-amino-5-hydroxy-4,6-dimethyl-tetrahydropyran-2-yl]oxy-4,5-dihydroxy-6-(hydroxymethyl)tetrahydropyran-2-yl]oxy-22-(2-amino-2-oxo-ethyl)-5,15-dichloro-2,18,32,35,37-pentahydroxy-19-[(2R,4R)-4-isobutyl-2,3-dimethyl-5-oxo-imidazolidin-1-yl]-20,23,26,42,44-pentaoxo-7,13-di …. It counts as physicochemical.

Series [16] deals with Staphylococcus aureus. Briefly: microbe, parasite or virus in culture. To be noted: ATCC 6538. The source holds these as a separate data set.
Description: Antibacterial activity against Staphylococcus aureus ATCC 6538 in presence of 8 mg/L HCHO by microdilution method

Consider `Cc1cc(O)cc(=O)o1` [4-HYDROXY-6-METHYLPYRAN-2-ONE], for which, in the series on Streptomyces sp. [1], the result was inactive. Further, the result in the series with Streptomyces sp. [2] and with Streptomyces sp. [3] was Active. For the same compound, the Drug metabolism entry in series [4] is given as “metabolite_detected”.
Consider `CN[C@H](CC(C)C)C(=O)N[C@H]1C(=O)N[C@@H](CC(N)=O)C(=O)N[C@H]2C(=O)N[C@H]3C(=O)N[C@H](C(=O)N[C@H](C(=O)O)c4cc(O)cc(O)c4-c4cc3ccc4O)[C@H](O)c3ccc(c(Cl)c3)Oc3cc2cc(c3O[C@@H]2O[C@H](CO)[C@@H](O)[C@H](O)[C@H]2O[C@H]2C[C@](C)(N)[C@H](O)[C@H](C)O2)Oc2ccc(cc2Cl)[C@H]1O` [VANCOMYCIN], for which the outcome in series [5], in series [8] and in series [15] was Active. For the same compound, the MBC in the series with Bacillus subtilis [6] was found to be 0.5 µg/mL (≈ 0.345 µM); against Staphylococcus aureus [12] it was 4 µg/mL (≈ 2.76 µM); against Staphylococcus aureus [14], 4 µg/mL (≈ 2.76 µM). Also, the MIC with Staphylococcus aureus [7] is 8 µg/mL (≈ 5.52 µM); in the series with Staphylococcus aureus [9] it was 8 µg/mL (≈ 5.52 µM); in the series on Staphylococcus aureus [11], 16 µg/mL (≈ 11 µM); against Bacillus subtilis [13] it was 0.5 µg/mL (≈ 0.345 µM); against Staphylococcus aureus [16], 16 µg/mL (≈ 11 µM). In series [10], the Drug metabolism entry is listed as “metabolite_detected”.
